For this test, the target named is T1, human FASN (Homo sapiens, UniProt P49327).
T1 construct: was purified from SKBR3 cells using procedures modified from those in Jayakumar et al; endogenous in cells; host or cells: SKBR3 human breast cancer cells (ATCC); Endogenous enzyme purified by ammonium sulfate precipitation and a mono Q column
The test is described as follows: FASN NADPH Consumption Assay. Type of test: biochemical. Conditions: human FASN purified from SKBR3 cells; starred symbols. As to the method:
Human FASN protein (SEQ ID NO. 1) was purified from SKBR3 cells using procedures modified from those in Jayakumar et al. PNAS 1995, 92:8695-8699. SKBR3 cells were obtained from ATCC and grown in DMEM high glucose medium supplemented with 10% FBS, 1 μg/mL bovine pancreas insulin, 100 U/mL penicillin and 100 µg/mL streptomycin. The confluent cells were trypsinized and washed three times with PBS buffer before frozen in liquid N2 and stored at −80° C. Frozen cells were thawed on ice and resuspended in lysis buffer (25 mM Tris-HCl, pH 7.0, 15 mM NaCl, 1 mM EDTA, and 1 mM DTT) with protease inhibitors. The cells were lysed by sonication, and the cell debris was removed by centrifugation at 20,000 rpm for 30 min. To the supernatant, neutralized saturated ammonium sulfate solution was added to a final concentration of 35%. The solution was left on ice for 1 hr, and the precipitated proteins were harvested by centrifugation at 20,000 rpm for 30 min. The proteins were redissolved in lysis buffer without NaCl and loaded on a mono Q column. Bound proteins were eluted with a linear gradient of NaCl in lysis buffer. Each fraction was analyzed by SDS-PAGE and FASN NADPH consumption assay. The fractions containing FASN were pooled and concentrated to 2-3 mg/mL. Glycerol was added to 20%, and the protein was frozen in liquid N2 and stored at −80° C.
All chemicals were purchased from Sigma (St. Louis, Mo.). The procedures of NADPH consumption assay were similar to those described in Cox et al., PNAS 1983, 80:4233-4237. On a 96-well polypropylene microplate, dilution series (typical concentrations 60 nM-1.0 mM) of test compounds were prepared in DMSO, of which 4.0 μL each was transferred to a black polystyrene assay microplate and mixed with 36 μL FASN assay buffer (50 mM potassium phosphate, pH 7.0, 1.0 mM EDTA, 0.01% NP-40) plus 5.0 mM fresh DTT. FASN protein (40 μL 150 nM FASN) was added per well, and the microplate was incubated at 37° C. for 30 min. Enzyme activity measurement was initiated by addition of 20 μL 5× substrate mixture to final concentrations of 60 nM FASN, 2.4 nM-40 μM compound, 0.2 mM NADPH, 50 μM butyryl-CoA, 0.5 mM malonyl-CoA in 100 μL assay buffer plus 5.0 mM DTT and 4.0% DMSO. NADPH consumption was monitored kinetically by fluorescence (λEx=340 nm, λEm=460 nm) on an EnVision 2100 multilabel plate reader (Perkin Elmer, Waltham, Mass.). FASN enzyme activity (slope) in the presence of 4% DMSO was used as maximum control, whereas background (minimum control) was measured by omission of malonyl-CoA in the substrate mixture. Inhibition curves were fitted by a logistic function to yield IC50 values:
Compounds were assayed as inhibitors of human FASN using the above-described FASN Scintillation Proximity Flashplate Assay (IC50; nM) or FASN NADPH Consumption Assay (*) (IC50; nM). The corresponding activity of the isolated compound is also provided along with the measured mass (ES^+).

Bounds are passed on as bounds.

T1 sequence (P49327 whole entry): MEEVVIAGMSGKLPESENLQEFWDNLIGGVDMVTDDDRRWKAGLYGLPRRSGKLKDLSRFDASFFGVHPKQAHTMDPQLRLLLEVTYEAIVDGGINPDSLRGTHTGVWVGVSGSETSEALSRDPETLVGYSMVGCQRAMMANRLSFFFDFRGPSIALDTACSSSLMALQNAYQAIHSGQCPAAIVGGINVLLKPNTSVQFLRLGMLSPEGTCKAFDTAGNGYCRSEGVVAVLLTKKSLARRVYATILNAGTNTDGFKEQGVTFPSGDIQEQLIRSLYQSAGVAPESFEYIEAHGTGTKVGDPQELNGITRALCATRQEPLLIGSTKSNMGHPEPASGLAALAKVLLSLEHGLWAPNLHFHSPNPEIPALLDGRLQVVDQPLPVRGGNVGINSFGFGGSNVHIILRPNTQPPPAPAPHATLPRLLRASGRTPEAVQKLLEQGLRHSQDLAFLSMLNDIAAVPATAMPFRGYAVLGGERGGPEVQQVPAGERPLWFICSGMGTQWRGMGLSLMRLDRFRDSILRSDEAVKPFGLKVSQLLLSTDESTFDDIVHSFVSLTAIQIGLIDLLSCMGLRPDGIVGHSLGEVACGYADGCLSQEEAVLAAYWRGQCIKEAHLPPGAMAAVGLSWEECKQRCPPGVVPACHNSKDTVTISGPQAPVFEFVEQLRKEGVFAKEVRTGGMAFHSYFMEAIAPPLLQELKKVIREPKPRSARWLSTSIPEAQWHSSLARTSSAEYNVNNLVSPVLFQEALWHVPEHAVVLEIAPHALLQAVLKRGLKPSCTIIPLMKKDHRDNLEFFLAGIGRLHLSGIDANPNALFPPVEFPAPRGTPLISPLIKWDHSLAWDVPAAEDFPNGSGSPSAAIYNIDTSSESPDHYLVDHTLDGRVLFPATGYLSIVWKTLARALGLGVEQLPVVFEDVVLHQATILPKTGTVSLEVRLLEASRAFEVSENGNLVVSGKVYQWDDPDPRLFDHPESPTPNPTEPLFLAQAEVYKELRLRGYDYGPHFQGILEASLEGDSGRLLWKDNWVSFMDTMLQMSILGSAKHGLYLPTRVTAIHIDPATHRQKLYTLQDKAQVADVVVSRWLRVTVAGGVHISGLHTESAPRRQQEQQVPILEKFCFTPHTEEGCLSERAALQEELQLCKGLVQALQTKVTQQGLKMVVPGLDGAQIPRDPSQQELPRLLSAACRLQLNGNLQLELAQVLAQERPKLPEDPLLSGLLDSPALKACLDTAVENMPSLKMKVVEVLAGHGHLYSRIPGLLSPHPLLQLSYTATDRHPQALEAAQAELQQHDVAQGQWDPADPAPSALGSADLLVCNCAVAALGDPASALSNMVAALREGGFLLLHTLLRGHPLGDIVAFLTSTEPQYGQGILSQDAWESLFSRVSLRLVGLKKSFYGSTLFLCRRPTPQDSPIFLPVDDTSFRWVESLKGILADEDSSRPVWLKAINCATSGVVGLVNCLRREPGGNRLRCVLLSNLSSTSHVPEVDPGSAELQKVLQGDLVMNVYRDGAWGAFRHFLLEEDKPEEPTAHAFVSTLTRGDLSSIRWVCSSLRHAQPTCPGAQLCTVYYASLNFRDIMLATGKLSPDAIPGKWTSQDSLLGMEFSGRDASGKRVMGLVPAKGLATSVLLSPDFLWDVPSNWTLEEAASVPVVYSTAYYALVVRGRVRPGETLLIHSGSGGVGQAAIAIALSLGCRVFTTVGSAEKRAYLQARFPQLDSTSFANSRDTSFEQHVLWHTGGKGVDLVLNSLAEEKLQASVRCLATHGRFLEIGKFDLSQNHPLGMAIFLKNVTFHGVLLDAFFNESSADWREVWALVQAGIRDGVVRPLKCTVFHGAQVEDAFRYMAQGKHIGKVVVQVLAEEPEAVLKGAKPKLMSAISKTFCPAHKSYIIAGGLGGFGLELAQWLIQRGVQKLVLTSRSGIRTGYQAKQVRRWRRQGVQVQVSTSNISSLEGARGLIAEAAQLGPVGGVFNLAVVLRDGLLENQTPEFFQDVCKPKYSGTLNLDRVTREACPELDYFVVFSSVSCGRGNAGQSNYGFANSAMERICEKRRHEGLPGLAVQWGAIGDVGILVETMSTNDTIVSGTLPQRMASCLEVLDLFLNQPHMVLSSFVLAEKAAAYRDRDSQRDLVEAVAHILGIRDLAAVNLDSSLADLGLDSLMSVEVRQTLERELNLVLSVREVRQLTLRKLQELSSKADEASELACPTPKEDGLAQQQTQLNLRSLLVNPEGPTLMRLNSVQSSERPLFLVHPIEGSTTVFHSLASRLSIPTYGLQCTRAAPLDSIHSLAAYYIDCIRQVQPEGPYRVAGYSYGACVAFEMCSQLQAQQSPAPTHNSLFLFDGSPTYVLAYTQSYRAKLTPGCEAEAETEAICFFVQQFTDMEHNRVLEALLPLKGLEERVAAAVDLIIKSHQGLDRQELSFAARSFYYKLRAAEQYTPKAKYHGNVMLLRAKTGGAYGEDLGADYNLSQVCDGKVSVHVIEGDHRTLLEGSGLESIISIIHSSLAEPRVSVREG

In turn, `CC(C)(C)OC(=O)N[C@@H]1CCN(C(=O)n2nnn(-c3c(Cl)cccc3Cl)c2=O)C1` came in with an IC50 of 1 to 10 µM.

`CC(C)(C)OC(=O)N[C@H]1CCN(C(=O)n2nnn(-c3c(Cl)cccc3Cl)c2=O)C1` displayed an IC50 greater than 10 µM.

Compound `O=C(N1CCCC1)n1nnn(-c2c(Cl)cccc2Cl)c1=O` came in with a half-maximal inhibitory concentration (IC50) greater than 10 µM.

Regarding `CC(=O)N[C@H]1CCN(C(=O)n2nnn(-c3c(Cl)cccc3Cl)c2=O)C1`, the IC50 is greater than 10 µM.

Compound `CC(=O)N[C@@H]1CCN(C(=O)n2nnn(-c3c(Cl)cccc3Cl)c2=O)C1` displayed an IC50 greater than 10 µM.

In the case of `CN(C)C(=O)[C@@H]1CCCN1C(=O)n1nnn(-c2c(Cl)cccc2Cl)c1=O`, the IC50 was greater than 10 µM.

Turning to `CNC(=O)[C@@H]1CCCN1C(=O)n1nnn(-c2c(Cl)cccc2Cl)c1=O`, the IC50 was greater than 10 µM.

Turning to `CC(C)(C)OC(=O)C1CCN(C(=O)n2nnn(-c3c(Cl)cccc3Cl)c2=O)CC1`, the IC50 was in the range of 1 to 10 µM.

On to `O=C(C1CCCN(C(=O)n2nnn(-c3c(Cl)cccc3Cl)c2=O)C1)N1CCCC1` (centres unmarked), for which the half-maximal inhibitory concentration (IC50) is greater than 10 µM.

The compound `CC(C)(C)OC(=O)NC1CCCN(C(=O)n2nnn(-c3c(Cl)cccc3Cl)c2=O)C1` (centres unmarked) registered an IC50 of 1 to 10 µM.

For `CCN(CC)C(=O)C1CCCN(C(=O)n2nnn(-c3c(Cl)cccc3Cl)c2=O)C1` (centres unmarked), the half-inhibitory concentration (IC50) fell in the range of 1 to 10 µM.

`CN(C)C1CCCN(C(=O)n2nnn(-c3c(Cl)cccc3Cl)c2=O)C1` (centres unmarked) showed an IC50 of 1 to 10 µM.

On to `CC(=O)NC1CCCN(C(=O)n2nnn(-c3c(Cl)cccc3Cl)c2=O)C1` (centres unmarked), for which the IC50 is greater than 10 µM.

In the case of `O=C(C1CCCN(C(=O)n2nnn(-c3c(Cl)cccc3Cl)c2=O)C1)N1CCCCC1` (centres unmarked), the IC50 lay in the range of 1 to 10 µM.

As for `O=C(O)C1CCN(C(=O)n2nnn(-c3c(Cl)cccc3Cl)c2=O)CC1`, the IC50 is greater than 10 µM.

Turning to `O=C(N1CCCCC1)n1nnn(-c2c(Cl)cccc2Cl)c1=O`, the IC50 lay within 1 to 10 µM.

As for `CS(=O)(=O)NC1CCCN(C(=O)n2nnn(-c3c(Cl)cccc3Cl)c2=O)C1` (centres unmarked), the IC50 is greater than 10 µM.

Regarding `CCNC(=O)NC1CCCN(C(=O)n2nnn(-c3c(Cl)cccc3Cl)c2=O)C1` (centres unmarked), the half-maximal inhibitory concentration (IC50) is greater than 10 µM.

In turn, `O=C(N1CCOCC1)n1nnn(-c2ccccc2Cl)c1=O` yielded an IC50 greater than 10 µM.

Regarding `Cc1ccccc1C#Cc1cccc(F)c1-n1nnn(C(=O)N2CCCC3CCCCC32)c1=O` (centres unmarked), the IC50 was in the range of 0.06 to 0.25 µM.

`O=C(N1CCCC2CCCCC21)n1nnn(-c2c(F)cccc2Br)c1=O` (centres unmarked) gave a concentration for half-maximal inhibition (IC50) of 0.06 to 0.25 µM.

`O=C(N1CCCC2CCCCC21)n1nnn(-c2c(F)cccc2F)c1=O` (centres unmarked) registered an IC50 of 0.06 to 0.25 µM.

For `O=C(N1CCCC2CCCCC21)n1nnn(-c2ccccc2Oc2ccccc2)c1=O` (centres unmarked), the IC50 is 0.25 to 1 µM.

As for `O=C(N1CCCC2CCCCC21)n1nnn(-c2c(Cl)cccc2Cl)c1=O` (centres unmarked), the IC50 was 0.25 to 1 µM.

For the compound `O=C(N1CC[C@](O)(c2ccccc2)[C@@H]2CCCC[C@H]21)n1nnn(-c2c(F)cccc2F)c1=O`, the IC50 fell in the range of 1 to 10 µM.

The compound `C[C@@H]1CC(=O)[C@@H]2CCCC[C@H]2N1C(=O)n1nnn(-c2c(F)cccc2F)c1=O` returned an IC50 of 1 to 10 µM.

`O=C(N1CCc2ccccc2C1)n1nnn(-c2c(F)cccc2F)c1=O` displayed an IC50 of 0.25 to 1 µM.

In the case of `O=C(O)c1ccc2c(c1)CCCN2C(=O)n1nnn(-c2ccccc2)c1=O`, the IC50 was 0.06 to 0.25 µM.

The compound `O=C(N1CCCc2ccccc21)n1nnn(-c2ccccc2Oc2ccccc2)c1=O` had an IC50 of 0.06 to 0.25 µM.

Take `COC(=O)C1CCc2ccccc2N1C(=O)n1nnn(-c2ccccc2Oc2ccccc2)c1=O` (centres unmarked): the IC50 was 0.25 to 1 µM.

With `Cc1cccc2c1N(C(=O)n1nnn(-c3c(F)cccc3F)c1=O)CCC2`, the concentration for half-maximal inhibition (IC50) fell in the range of 0.06 to 0.25 µM.

As to `O=C(N1CCCc2cc([N+](=O)[O-])ccc21)n1nnn(-c2c(F)cccc2F)c1=O`, the IC50 was 1 to 10 µM.

`COc1ccc2c(c1)CCCN2C(=O)n1nnn(-c2c(F)cccc2F)c1=O` came in with an IC50 of 0.06 to 0.25 µM.

Regarding `Cc1ccc2c(c1)CCCN2C(=O)n1nnn(-c2c(F)cccc2F)c1=O`, the half-inhibitory concentration (IC50) lay in the range of 0.06 to 0.25 µM.

Consider `O=C(N1CCCc2ccccc21)n1nnn(-c2c(F)cccc2F)c1=O`, for which the IC50 is 0.06 to 0.25 µM.

`CC(C)(C)OC(=O)Nc1ccc2c(c1)CCCN2C(=O)n1nnn(-c2c(F)cccc2F)c1=O` had an IC50 of 0.06 to 0.25 µM.

With `O=C(N1CCCc2cc(Br)ccc21)n1nnn(-c2c(F)cccc2F)c1=O`, the IC50 lay within 0.06 to 0.25 µM.

For the compound `O=CNc1ccc2c(c1)CCCN2C(=O)n1nnn(-c2c(F)cccc2F)c1=O`, the IC50 lay within 0.06 to 0.25 µM.

`Nc1ccc2c(c1)CCCN2C(=O)n1nnn(-c2c(F)cccc2F)c1=O` returned an IC50 of 0.06 to 0.25 µM.

On to `O=CNc1cccc2c1CCCN2C(=O)n1nnn(-c2c(F)cccc2F)c1=O`, for which the IC50 was 0.06 to 0.25 µM.

Turning to `COC(=O)C1CCc2ccccc2N1C(=O)n1nnn(-c2c(F)cccc2F)c1=O` (centres unmarked), the IC50 lay in the range of 0.06 to 0.25 µM.

Consider `CC1CCc2ccccc2N1C(=O)n1nnn(-c2c(F)cccc2F)c1=O` (centres unmarked), for which the IC50 was in the range of 0.06 to 0.25 µM.

`CC(C)(C)OC(=O)Nc1cccc2c1CCCN2C(=O)n1nnn(-c2c(F)cccc2F)c1=O`: the IC50 is 0.06 to 0.25 µM.

Compound `O=C(N1CCCc2ccc(C(F)(F)F)cc21)n1nnn(-c2c(F)cccc2F)c1=O` had an IC50 of 0.25 to 1 µM.

`Nc1cccc2c1CCCN2C(=O)n1nnn(-c2c(F)cccc2F)c1=O`: the IC50 is 0.06 to 0.25 µM.

`O=C(OCc1ccccc1)c1ccc2c(c1)CCCN2C(=O)n1nnn(-c2c(Cl)cccc2Cl)c1=O` yielded an IC50 of 1 to 10 µM.

In the case of `O=C(N1c2ccccc2Sc2ccccc21)n1nnn(-c2c(F)cccc2F)c1=O`, the IC50 is less than 0.06 µM.

`O=C(N1CCOc2ccccc21)n1nnn(-c2c(F)cccc2F)c1=O` registered a half-inhibitory concentration (IC50) of 1 to 10 µM.

On to `O=C(N1Cc2ccccc2Cc2ccccc21)n1nnn(-c2c(F)cccc2F)c1=O`, for which the IC50 was 0.06 to 0.25 µM.

`O=C(N1CCCCc2ccccc21)n1nnn(-c2c(F)cccc2F)c1=O`: the IC50 is 0.06 to 0.25 µM.

`Cc1ccccc1C#Cc1cccc(F)c1-n1nnn(C(=O)N2CCCCc3ccccc32)c1=O` yielded an IC50 of 0.06 to 0.25 µM.

`Cc1ccccc1CCc1cccc(F)c1-n1nnn(C(=O)N2CCCCc3ccccc32)c1=O` yielded an IC50 of 0.06 to 0.25 µM.

Regarding `O=C(N1CCCCc2ccccc21)n1nnn(-c2c(F)cccc2Br)c1=O`, the IC50 was 0.25 to 1 µM.

Turning to `CCOC(=O)N1CCC(N(CC)C(=O)n2nnn(-c3c(Cl)cccc3Cl)c2=O)CC1`, the IC50 lay within 1 to 10 µM.

As to `CCN(C(=O)n1nnn(-c2cccc(Cl)c2)c1=O)C1CCCCC1`, the IC50 is greater than 10 µM.

The compound `CCN(C(=O)n1nnn(-c2cccc(C(F)(F)F)c2)c1=O)C1CCCCC1` yielded an IC50 greater than 10 µM.

`CCN(C(=O)n1nnn(-c2cccc(C#N)c2)c1=O)C1CCCCC1`: the IC50 was greater than 10 µM.

Take `O=C(N(O)C1CCCCC1)n1nnn(-c2c(F)cccc2F)c1=O`: the half-maximal inhibitory concentration (IC50) was in the range of 0.06 to 0.25 µM.

`CCN(C(=O)n1nnn(-c2c(F)cccc2F)c1=O)C1CCCCC1` gave an IC50 of 0.25 to 1 µM.

`N#CCCN(C(=O)n1nnn(-c2c(Cl)cccc2Cl)c1=O)C1CCCCC1` returned an IC50 of 1 to 10 µM.

In turn, `CCN(C(=O)n1nnn(-c2c(Cl)cccc2Cl)c1=O)C1CCCCC1` had an IC50 of 1 to 10 µM.

The compound `CS(=O)(=O)NCCCN(C(=O)n1nnn(-c2c(Cl)cccc2Cl)c1=O)C1CCCCC1` gave an IC50 of 1 to 10 µM.

As for `CC(C)(C)OC(=O)NCCN(C(=O)n1nnn(-c2c(Cl)cccc2Cl)c1=O)C1CCCCC1`, the IC50 is greater than 10 µM.

`CCN(C(=O)n1nnn(-c2c(Cl)cccc2Cl)c1=O)C1CCCC(C(=O)N2CCOCC2)C1` (centres unmarked) yielded an IC50 of 1 to 10 µM.

Take `CCN(C(=O)n1nnn(-c2c(Cl)cccc2Cl)c1=O)C1CCC(C(=O)OCc2ccc(OC)cc2)CC1` (centres unmarked): the IC50 was greater than 10 µM.

The values are drawn from US9346769B2, “Tetrazolones as inhibitors of fatty acid synthase” (Infinity Pharmaceuticals, Inc., priority 2010, dated 2016).
